Reference: article PMC13195669, “GPR3 Ligands Discovered through Combined Virtual and Conformational Biosensor-Based Screening” (Journal of the American Chemical Society, 2026)

Target: T1, GPR3 T3.37A mutant (Homo sapiens, UniProt P46089, T121A)
T1 construct: ligated to the full-length C-terminus; expressed in transfected cells; host or cells: HEK293A, transient
Assay: GPR3 conformational biosensor with T3.37A point mutation
Type: cell-based
Details: wildtype vs mutant biosensor; transiently transfected HEK293A
Excerpt: To develop a hypothesis for the cause of the significant loss in efficacy from VH1 to 33, we computationally predicted the binding poses of both molecules in GPR3 (Figure a). […] In contrast, the cyclopropyl ring of 33 is still buried in the receptor’s transmembrane core. […] We also challenged this binding model of 33 with another GPR3 biosensor variant which harbors the T^3.37A point mutation in transmembrane helix 3. According to an alternative predicted pose of 33 obtained with Boltz-2 (c.f., SI – Materials and Methods section), this mutation should hamper 33 binding to GPR3.
BRET-based GPCR conformational sensor experiments
Cells expressing the conformational GPCR biosensors were grown for 24 h (stable cells) or 48 h (transiently transfected cells) in white 96-well plates and washed with 100 µl of HBSS. […] Three baseline BRET reads were recorded and averaged prior to the addition of serial dilutions of ligands or veh icle control and subsequent BRET reads. […] BRE T donor emission was quantified with a 470/80 nm monochromator. […] Experiments were carried out using a CLARIOstar plate reader.
FRET- and BRET-based measurements of cAMP levels and Gs dissociation/reassociation Transfected cells grown in black 96-well plates were washed twice with 100 µl of HBSS 48 h after transfection and incubated with HBSS. […] FRET donor emission was quantified with a 480/10 nm filter. […]

T1 sequence (P46089 2-330 T121A limits assumed): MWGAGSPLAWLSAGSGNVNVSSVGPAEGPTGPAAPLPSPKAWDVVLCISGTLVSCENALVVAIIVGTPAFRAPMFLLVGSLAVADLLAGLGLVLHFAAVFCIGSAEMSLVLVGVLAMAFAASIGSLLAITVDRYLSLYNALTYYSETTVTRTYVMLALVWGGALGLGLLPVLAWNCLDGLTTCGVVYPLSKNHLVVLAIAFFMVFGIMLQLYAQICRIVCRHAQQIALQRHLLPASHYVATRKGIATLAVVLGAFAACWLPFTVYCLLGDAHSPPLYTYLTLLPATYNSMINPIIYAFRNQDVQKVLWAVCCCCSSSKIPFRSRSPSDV

N=c1n(Cc2ccccc2)c2ccccc2n1CC1CC1 [compound 33]
effect of T3.37A mutation on activity: no such effect on 33 activity
